# Experimental data from ChEMBL document CHEMBL1201862, “PubChem BioAssay data set” (2004).
#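 In this assay, cells in 96-well plates receive the compound at five concentrations for 48 hours. Endpoints are linearly interpolated between the surrounding concentrations. The concentration for 50% growth inhibition is given as GI50.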 The source made the active and inactive calls. Cut-off read from the data, not from the text of the source: active = GI50 up to about 1.1 µM and inactive = higher.
# Assays:
# Test in all cases: inhibition of tumour cell growth, NCI panel, 48 h
# CCRF-CEM = tested on: CCRF-CEM
# COLO 205 = tested on: COLO 205
# HCT-15 = tested on: HCT-15
# HL-60 = tested on: HL-60
# HOP-62 = tested on: HOP-62
# HT-29 = tested on: HT-29
# K562 = tested on: K562
# KM12 = tested on: KM12
# MOLT-4 = tested on: MOLT-4
# NCI-H226 = tested on: NCI-H226
# NCI-H460 = tested on: NCI-H460
# OVCAR-3 = tested on: OVCAR-3
# OVCAR-8 = tested on: OVCAR-8
# RPMI-8226 = tested on: RPMI-8226
# RXF 393 = tested on: RXF 393
# SF-295 = tested on: SF-295
# SK-MEL-2 = tested on: SK-MEL-2
# SN12C = tested on: SN12C
# U-251 = tested on: U-251
# UO-31 = tested on: UO-31
Compound,GI50 (CCRF-CEM),GI50 (COLO 205),GI50 (HCT-15),GI50 (HL-60),GI50 (HOP-62),GI50 (HT-29),GI50 (K562),GI50 (KM12),GI50 (MOLT-4),GI50 (NCI-H226),GI50 (NCI-H460),GI50 (OVCAR-3),GI50 (OVCAR-8),GI50 (RPMI-8226),GI50 (RXF 393),GI50 (SF-295),GI50 (SK-MEL-2),GI50 (SN12C),GI50 (U-251),GI50 (UO-31)
COc1cc2c(cc1OC)C(=O)/C(=C/c1cc(OC)c(OC)c(OC)c1)C2,> 100 µM (inactive),> 100 µM (inactive),> 100 µM,> 100 µM (inactive),43.6 µM (inactive),> 100 µM (inactive),> 100 µM (inactive),> 100 µM (inactive),> 100 µM (inactive),> 100 µM (inactive),> 100 µM (inactive),> 100 µM (inactive),> 100 µM (inactive),> 100 µM (inactive),> 100 µM (inactive),> 100 µM (inactive),> 100 µM (inactive),> 100 µM (inactive),> 100 µM (inactive),> 100 µM (inactive)
O=C1CN2C(Cl)(Cl)C2(c2ccccc2)c2cc(Cl)ccc2N1CC(F)(F)F (stereo not given),18.7 µM (inactive),19.5 µM (inactive),25.8 µM,> 10 µM (inactive),22.6 µM (inactive),18.4 µM (inactive),27.8 µM (inactive),19.6 µM (inactive),19.1 µM (inactive),26.2 µM (inactive),16.1 µM (inactive),18.8 µM (inactive),33.4 µM (inactive),32.4 µM (inactive),21.9 µM (inactive),18.5 µM (inactive),24 µM (inactive),16.9 µM (inactive),18.8 µM (inactive),36.3 µM (inactive)
CN1C2CC(=O)CC1[C@H](O)[C@@H]2O,> 100 µM (inactive),> 100 µM (inactive),> 100 µM,> 100 µM (inactive),> 100 µM (inactive),> 100 µM (inactive),> 100 µM (inactive),> 100 µM (inactive),> 100 µM (inactive),> 100 µM (inactive),> 100 µM (inactive),> 100 µM (inactive),> 100 µM (inactive),> 100 µM (inactive),> 100 µM (inactive),> 100 µM (inactive),> 100 µM (inactive),> 100 µM (inactive),> 100 µM (inactive),> 100 µM (inactive)
CC1OC1C(=O)C1(O)C(C)C(O)C23OC2(C(O)c2c(O)cccc2C3=O)C1O (stereo not given) [CERVICARCIN],0.044 µM (active),0.0706 µM (active),0.195 µM,0.152 µM (active),0.0895 µM (active),0.173 µM (active),0.175 µM (active),0.298 µM (active),0.0415 µM (active),0.31 µM (active),0.118 µM (active),0.0638 µM (active),0.172 µM (active),0.0847 µM (active),0.191 µM (active),0.226 µM (active),0.142 µM (active),0.0557 µM (active),0.232 µM (active),0.137 µM (active)
COc1ccc2c3c1O[C@H]1C[C@@H](O)C=C[C@@]31CCN(C)C2 [GALANTAMINE],> 150 µM (inactive),> 150 µM (inactive),> 150 µM,141 µM (inactive),> 150 µM (inactive),> 150 µM (inactive),> 150 µM (inactive),> 150 µM (inactive),> 150 µM (inactive),> 150 µM (inactive),> 150 µM (inactive),> 150 µM (inactive),23.8 µM (inactive),> 150 µM (inactive),> 150 µM (inactive),> 150 µM (inactive),> 150 µM (inactive),> 150 µM (inactive),> 150 µM (inactive),> 150 µM (inactive)
O=c1cc[nH]c(=O)[nH]1 [URACIL],318 µM (inactive),187 µM (inactive),798 µM,581 µM (inactive),340 µM (inactive),509 µM (inactive),465 µM (inactive),237 µM (inactive),550 µM (inactive),329 µM (inactive),305 µM (inactive),667 µM (inactive),527 µM (inactive),> 946 µM (inactive),316 µM (inactive),382 µM (inactive),393 µM (inactive),502 µM (inactive),370 µM (inactive),1000 µM (inactive)
